# Values quoted from earlier work, collected in patent publication US20050182074A1 (Pfizer Inc., priority 2004, published 2005).
# Assays:
# [1] = steady state pharmacokinetics of voriconazole
# [2] = AIDS patient on antiretroviral drugs, voriconazole added
SMILES,effect on voriconazole exposure [1],plasma concentration on addition of voriconazole [2]
COc1ccc2[nH]c([S+]([O-])Cc3ncc(C)c(OC)c3C)nc2c1 (stereo not drawn) [omeprazole],no clinically relevant effect,
Cc1ccnc2c1NC(=O)c1cccnc1N2C1CC1 [nevirapine],,elevated plasma concentrations
CC(C)CN(C[C@@H](O)[C@H](Cc1ccccc1)NC(=O)O[C@H]1CCOC1)S(=O)(=O)c1ccc(N)cc1 [amprenavir],,elevated plasma concentrations
